The values below come from paper PMC3390202 (Biochemistry, 2011).

The assay addresses rhodopsin (N2C,D282C and N2C,E113Q,D282C mutants) (Bos taurus, UniProt P02699, N2C/E113Q/D282C). Nature of the assay: UV-visible absorption. It counts as binding. To be noted: covalent; in the dark; inverse agonist chromophore; DDM, Hepes pH 7.5.

Regarding `CC1=C(/C=C/C(C)=C/C=C\C(C)=C\C=O)C(C)(C)CCC1` [11-cis-retinal], the “UV-visible absorption; 1D4-Sepharose copurification with transducin” value is “Binding of 11-cis-retinal forces the protein into the inactive state”.
